Data reported in PMC11118832 (Biomolecules, 2024).
Square brackets hold non-standard residues; d marks the D form. Peptide text beside a SMILES is read from it. Phe(4-NH2) = Nc1ccc(C[C@H](N)C(=O)O)cc1; 1Nal = N[C@@H](Cc1cccc2ccccc12)C(=O)O; pS = N[C@@H](COP(=O)(O)O)C(=O)O; hLeu = CC(C)CC[C@H](N)C(=O)O; Nle = CCCC[C@H](N)C(=O)O; Orn = NCCC[C@H](N)C(=O)O

Molecular target: T1, PD-1/PD-L1 (Homo sapiens, UniProt Q15116)
T1 construct: this kit uses ectodomains of PD-1 and PD-L1 that are expressed with orthogonal fusion tags (Tag-1 and Tag-2); purchased CisBio (currently Perkin-Elmer, Bedford, MA)
Experiment: In vitro time-resolved FRET PD-1/PD-L1 binding assay (CisBio kit)
Details: CisBio PD-1/PD-L1 binding kit, TR FRET, 96-well; for EC50: serial dilutions in triplicate, NI = no inhibition at maximum concentration tested (* 5 μM, ** 50 μM), read-out: EC50 (Supplementary Table S1; inhibition of PD-1/PD-L1 binding by in vitro TR-FRET assay)
Description: Commercial PD-1/PD-L1 binding assay kit (CisBio, currently Perkin-Elmer, Bedford, MA) for time resolve fluorescent energy transfer (FRET) was used to assess peptides binding to PD-1. The assay for peptide screening was performed in a 96-well format (normal pressure), starting with 4-fold serial dilutions of each peptide in triplicate. No-peptide triplicate wells were used to assess fluorescent energy transfer in the absence of inhibition, and no-PD-1/PD-L1 triplicate wells were used to assess the background fluorescent energy transfer in the absence of PD-1/PD-L1 complexes. More detailed concentration dependences were obtained for selected peptides. Only freshly dissolved peptides were used in the assay. Various QSAR (quantitative structure activity relationship) hypotheses were tested by synthesizing batches of 10–12 peptides. In total, over one hundred candidates in ten iterations were screened for their ability to inhibit in vitro PD-1/PD-L1 binding using the commercial PD-1/PD-L1 binding assay kit (CisBio, currently Perkin-Elmer). Briefly, this kit uses ectodomains of PD-1 and PD-L1 that are expressed with orthogonal fusion tags (Tag-1 and Tag-2). It also includes two antibodies to selectively interact with these tags. The antibody against one tag is labeled with fluorescent moiety, which serves as a donor, while the other antibody is labeled with fluorescent moiety, which serves as an acceptor in fluorescent resonance energy transfer (FRET). When the complex is formed and probed with both anti-Tag-1 and anti-Tag-2 antibodies, donor and acceptor are sufficiently close, and FRET can be detected in a time-resolved (TR) manner. Inhibitors of PD-1/PD-L1 interactions prevent complex formation, leading to a decrease in TR FRET in a concentration-dependent manner, as shown in Figure 2 for four representative peptide inhibitors. Initial fourfold dilutions are exemplified by data for peptides B5.11 and B5.6 (panels A and B); examples of the more detailed follow-up concentration dependences are shown for peptides B2.4 and B2.22 (panels C and D). The potency of the inhibitors is then characterized by IC50, a concentration that inhibits TR FRET by 50%, allowing for a facile comparison of different inhibitors (Figure 2E).

CCCC[C@H](NC(=O)[C@@H](NC(=O)[C@H](CCCNC(=N)N)NC(C)=O)C(C)C)C(=O)N[C@@H](CCCNC(=N)N)C(=O)N[C@H](C(=O)N[C@@H](CCC(=O)O)C(=O)NCC(=O)N[C@@H](C)C(=O)N[C@@H](C)C(=O)N[C@@H](Cc1c[nH]c2ccccc12)C(=O)N[C@@H](CC(=O)O)C(=O)N[C@@H](Cc1ccc(O)cc1)C(=O)N[C@@H](CCCCN)C(=O)N[C@@H](Cc1ccc(O)cc1)C(N)=O)[C@@H](C)CC [B4.6] (Ac-RV[Nle]RIEGAAWDYKY-NH2)
EC50: > 5 µM

CCCC[C@H](NC(=O)[C@@H](NC(=O)[C@@H](N)CCCNC(=N)N)C(C)C)C(=O)N[C@H](C(=O)N[C@H](C(=O)N[C@H](C(=O)NCC(=O)N[C@@H](C)C(=O)N[C@@H](C)C(=O)N[C@@H](Cc1c[nH]c2ccccc12)C(=O)N[C@@H](CC(=O)O)C(=O)N[C@@H](Cc1ccc(O)cc1)C(=O)N[C@@H](CCCCN)C(=O)N[C@@H](Cc1ccc(O)cc1)C(=O)O)C(C)C)[C@@H](C)CC)C(C)C [B4.7] (H-RV[Nle]VIVGAAWDYKY-OH; N-terminus and C-terminus assumed)
EC50: > 5 µM

CCCC[C@H](NC(=O)[C@@H](NC(=O)[C@H](CCCC)NC(=O)[C@@H](NC(=O)[C@@H](N)CCCNC(=N)N)C(C)C)C(C)C)C(=O)N[C@H](C(=O)NCC(=O)N[C@@H](C)C(=O)N[C@@H](C)C(=O)N[C@@H](Cc1c[nH]c2ccccc12)C(=O)N[C@@H](CC(=O)O)C(=O)N[C@@H](Cc1ccc(O)cc1)C(=O)N[C@@H](CCCCN)C(=O)N[C@@H](Cc1ccc(O)cc1)C(=O)O)C(C)C [B4.8] (H-RV[Nle]V[Nle]VGAAWDYKY-OH; N-terminus and C-terminus assumed)
EC50: > 5 µM

CCCC[C@H](NC(=O)[C@@H](NC(=O)[C@H](CCCNC(=N)N)NC(C)=O)C(C)C)C(=O)N[C@H](C(=O)N[C@H](C(=O)N[C@H](C(=O)NCC(=O)N[C@@H](C)C(=O)N[C@@H](CCCN)C(=O)N[C@@H](Cc1c[nH]c2ccccc12)C(=O)N[C@@H](CC(=O)O)C(=O)N[C@@H](Cc1ccc(O)cc1)C(=O)N[C@@H](CCCCN)C(=O)N[C@@H](Cc1ccc(O)cc1)C(N)=O)C(C)C)[C@@H](C)CC)C(C)C [B4.9] (Ac-RV[Nle]VIVGA[Orn]WDYKY-NH2)
EC50: 5 µM

CCCC[C@H](NC(=O)[C@@H](NC(=O)[C@@H](N)CCCNC(=N)N)C(C)C)C(=O)N[C@H](C(=O)N[C@H](C(=O)N[C@H](C(=O)NCC(=O)N[C@@H](C)C(=O)N[C@@H](C)C(=O)N[C@@H](Cc1c[nH]c2ccccc12)C(=O)N[C@@H](CC(=O)O)C(=O)N[C@@H](Cc1ccc(N)cc1)C(=O)N[C@@H](CCCCN)C(=O)N[C@@H](Cc1ccc(O)cc1)C(=O)O)C(C)C)[C@@H](C)CC)C(C)C [B4.10] (H-RV[Nle]VIVGAAWD[Phe(4-NH2)]KY-OH; N-terminus and C-terminus assumed)
EC50: > 5 µM

CCCC[C@H](NC(C)=O)C(=O)N[C@H](C(=O)N[C@@H](Cc1c[nH]c2ccccc12)C(=O)N[C@H](C(=O)NCC(=O)N[C@@H](C)C(=O)N[C@@H](C)C(=O)N[C@@H](Cc1c[nH]c2ccccc12)C(=O)N[C@@H](CC(=O)O)C(=O)N[C@@H](Cc1ccc(O)cc1)C(=O)N[C@@H](CCCCN)C(=O)N[C@@H](Cc1ccc(O)cc1)C(N)=O)C(C)C)C(C)C [B4.11] (Ac-[Nle]VWVGAAWDYKY-NH2)
EC50: > 5 µM

CCCC[C@H](NC(C)=O)C(=O)N[C@H](C(=O)N[C@@H](Cc1c[nH]c2ccccc12)C(=O)N[C@H](C(=O)NCC(=O)N[C@@H](C)C(=O)N[C@@H](C)C(=O)N[C@@H](Cc1c[nH]c2ccccc12)C(=O)N[C@@H](CC(=O)O)C(=O)N[C@@H](CCCNC(=N)N)C(=O)N[C@@H](CCCCN)C(=O)N[C@@H](Cc1ccc(O)cc1)C(N)=O)C(C)C)C(C)C [B4.12] (Ac-[Nle]VWVGAAWDRKY-NH2)
EC50: > 5 µM

CCCC[C@H](N)C(=O)N[C@H](C(=O)N[C@@H](Cc1c[nH]c2ccccc12)C(=O)N[C@H](C(=O)NCC(=O)N[C@@H](C)C(=O)N[C@@H](C)C(=O)N[C@@H](Cc1c[nH]c2ccccc12)C(=O)N[C@@H](CC(=O)O)C(=O)N[C@@H](CCCNC(=N)N)C(=O)N[C@@H](CCCCN)C(=O)N[C@@H](Cc1ccc(O)cc1)C(=O)O)C(C)C)C(C)C [B4.13] (H-[Nle]VWVGAAWDRKY-OH; N-terminus and C-terminus assumed)
EC50: > 5 µM

CCCC[C@H](N)C(=O)N[C@H](C(=O)N[C@H](C(=O)N[C@H](C(=O)NCC(=O)N[C@@H](C)C(=O)N[C@@H](C)C(=O)N[C@@H](Cc1c[nH]c2ccccc12)C(=O)N[C@@H](CC(=O)O)C(=O)N[C@@H](Cc1ccc(O)cc1)C(=O)N[C@@H](CCCCN)C(=O)N[C@@H](CCCNC(=N)N)C(=O)O)C(C)C)[C@@H](C)CC)C(C)C [B4.14] (H-[Nle]VIVGAAWDYKR-OH; N-terminus and C-terminus assumed)
EC50: > 5 µM

CCCC[C@H](N)C(=O)N[C@H](C(=O)N[C@@H](Cc1c[nH]c2ccccc12)C(=O)N[C@H](C(=O)NCC(=O)N[C@@H](C)C(=O)N[C@@H](C)C(=O)N[C@@H](Cc1c[nH]c2ccccc12)C(=O)N[C@@H](CC(=O)O)C(=O)N[C@@H](Cc1ccc(O)cc1)C(=O)N[C@@H](CCCCN)C(=O)N[C@@H](Cc1ccc(O)cc1)C(=O)O)C(C)C)C(C)C [B4.15] (H-[Nle]VWVGAAWDYKY-OH; N-terminus and C-terminus assumed)
EC50: > 5 µM

CC[C@H](C)[C@H](NC(=O)[C@H](CCC(C)C)NC(=O)[C@H](CC(=O)O)NC(C)=O)C(=O)N[C@H](C(=O)NCC(=O)N[C@@H](C)C(=O)N[C@@H](C)C(=O)N[C@@H](Cc1c[nH]c2ccccc12)C(=O)N[C@@H](CC(=O)O)C(=O)N[C@@H](Cc1ccc(O)cc1)C(=O)N[C@@H](CCCCN)C(=O)N[C@@H](Cc1ccc(O)cc1)C(N)=O)C(C)C [B5.3] (Ac-D[hLeu]IVGAAWDYKY-NH2)
EC50: > 5 µM

CCCC[C@H](NC(C)=O)C(=O)N[C@H](C(=O)N[C@@H](CC(=O)O)C(=O)N[C@H](C(=O)N[C@H](C(=O)N[C@H](C(=O)NCC(=O)N[C@@H](C)C(=O)N[C@@H](C)C(=O)N[C@@H](Cc1c[nH]c2ccccc12)C(=O)N[C@@H](CC(=O)O)C(=O)N[C@@H](Cc1ccc(O)cc1)C(=O)N[C@@H](CCCCN)C(=O)N[C@@H](Cc1ccc(O)cc1)C(N)=O)C(C)C)[C@@H](C)CC)C(C)C)C(C)C [B5.5] (Ac-[Nle]VDVIVGAAWDYKY-NH2)
EC50: > 5 µM

CCCC[C@H](NC(C)=O)C(=O)N[C@H](C(=O)N[C@@H](CC(C)C)C(=O)N[C@H](C(=O)N[C@H](C(=O)N[C@H](C(=O)NCC(=O)N[C@@H](C)C(=O)N[C@@H](C)C(=O)N[C@@H](Cc1c[nH]c2ccccc12)C(=O)N[C@@H](CC(=O)O)C(=O)N[C@@H](Cc1ccc(O)cc1)C(=O)N[C@@H](CCCCN)C(=O)N[C@@H](Cc1ccc(O)cc1)C(N)=O)C(C)C)[C@@H](C)CC)C(C)C)C(C)C [B5.6] (Ac-[Nle]VLVIVGAAWDYKY-NH2)
IC50 (4-fold serial dilutions in triplicate, freshly dissolved peptides, read-out: IC50, inhibition of PD-1/PD-L1 binding (TR FRET assay)): 0.2 µM
EC50: 0.2 µM

CCCC[C@H](NC(=O)[C@H](CC(=O)O)NC(C)=O)C(=O)N[C@H](C(=O)N[C@H](C(=O)NCC(=O)N[C@@H](C)C(=O)N[C@@H](C)C(=O)N[C@@H](Cc1c[nH]c2ccccc12)C(=O)N[C@@H](CC(=O)O)C(=O)N[C@@H](Cc1ccc(O)cc1)C(=O)N[C@@H](CCCCN)C(=O)N[C@@H](Cc1ccc(O)cc1)C(N)=O)C(C)C)[C@@H](C)CC [B5.7] (Ac-D[Nle]IVGAAWDYKY-NH2)
EC50: > 5 µM

CCCC[C@H](NC(=O)[C@@H](NC(=O)[C@H](CC(=O)O)NC(C)=O)C(C)C)C(=O)N[C@H](C(=O)NCC(=O)N[C@@H](C)C(=O)N[C@@H](C)C(=O)N[C@@H](Cc1c[nH]c2ccccc12)C(=O)N[C@@H](CC(=O)O)C(=O)N[C@@H](Cc1ccc(O)cc1)C(=O)N[C@@H](CCCCN)C(=O)N[C@@H](Cc1ccc(O)cc1)C(N)=O)C(C)C [B5.8] (Ac-DV[Nle]VGAAWDYKY-NH2)
EC50: > 5 µM

CC[C@H](C)[C@H](NC(=O)[C@@H](NC(=O)[C@H](CC(=O)O)NC(C)=O)C(C)C)C(=O)N[C@H](C(=O)NCC(=O)N[C@@H](C)C(=O)N[C@@H](C)C(=O)N[C@@H](Cc1cccc2ccccc12)C(=O)N[C@@H](CC(=O)O)C(=O)N[C@@H](Cc1ccc(O)cc1)C(=O)N[C@@H](CCCCN)C(=O)N[C@@H](Cc1ccc(O)cc1)C(N)=O)C(C)C [B6.1] (Ac-DVIVGAA[1Nal]DYKY-NH2)
EC50: > 5 µM

CC[C@H](C)[C@H](NC(=O)[C@@H](NC(=O)[C@H](CC(C)C)NC(C)=O)C(C)C)C(=O)N[C@H](C(=O)NCC(=O)N[C@@H](C)C(=O)N[C@@H](C)C(=O)N[C@@H](Cc1c[nH]c2ccccc12)C(=O)N[C@@H](COP(=O)(O)O)C(=O)N[C@@H](Cc1ccc(O)cc1)C(=O)N[C@@H](CCCCN)C(=O)N[C@@H](Cc1ccc(O)cc1)C(N)=O)C(C)C [B6.2] (Ac-LVIVGAAW[pS]YKY-NH2)
EC50: > 5 µM
